Experimental data from US10858360B2, “Tricyclic gyrase inhibitors” (priority 2011, dated 2020).
In brackets after ≈: the same amount, converted by molar mass.

How the values were obtained:
S. aureus ATCC 13709 = assay: MIC, S. aureus ATCC 13709 (Alamar Blue broth microdilution); format: cell-based; conditions: Alamar Blue read after overnight incubation at 35° C.; for MIC: Staphylococcus aureus, ATCC13709, S. aureus; for MIC Sa: S. aureus
E. coli ATCC 25922 = assay: MIC, E. coli ATCC 25922; format: cell-based; conditions: Alamar Blue read after overnight incubation at 35° C.; for MIC: Escherichia coli, ATCC25922, E. coli; for MIC Ec: E. coli

Structure (SMILES)	MIC (S. aureus ATCC 13709)	MIC (E. coli ATCC 25922)	MIC Sa (S. aureus ATCC 13709)	MIC Ec (E. coli ATCC 25922)
CNc1cc(F)cc2c1[nH]c1nc(Oc3cnc4ccoc4c3)nc(N3CC4CC(N)C4C3)c12 (centres unmarked) [4.290]	≤ 0.5 µg/mL	≤ 0.5 µg/mL	–	–
Cc1ncc(Oc2nc(N3CC4CC3C[C@@H]4N)c3c(n2)[nH]c2c(N)cc(F)cc23)cn1 (some centres unmarked) [2.160]	8 µg/mL (≈ 19 µM)	16 µg/mL (≈ 38.1 µM)	–	–
CNc1cc(F)cc2c1[nH]c1nc(Oc3cnc(C)nc3)nc(N3CC4CONC4C3)c12 (centres unmarked) [4.122]	–	–	≤0.5 µg/mL	1 µg/mL (≈ 2.29 µM)
CNc1cc(F)cc2c1[nH]c1nc(Oc3cnc4ccoc4c3)nc(N3CC4C(N)C4C3)c12 (centres unmarked) [4.291]	≤ 0.5 µg/mL	≤ 0.5 µg/mL	–	–
CNc1cc(F)cc2c1[nH]c1nc(Oc3cnc(N)nc3)nc(N3CC4CNC(C4)C3)c12 (centres unmarked) [4.175]	≤ 0.5 µg/mL	8 µg/mL (≈ 18.4 µM)	–	–
CNc1cc(F)cc2c1[nH]c1nc(Oc3cnc(C)nc3)nc(N3CC(NC(=O)C(N)CO)C4(CC4)C3)c12 (centres unmarked) [4.124]	–	–	≤0.5 µg/mL	8 µg/mL (≈ 15.3 µM)
CNc1cc(F)cc2c1[nH]c1nc(Oc3cncc(Cl)c3)nc(N3CC4CC(N)C4C3)c12 (centres unmarked) [4.271]	–	–	≤0.5 µg/mL	≤0.5 µg/mL
CCNc1cccc2c1[nH]c1nc(Sc3cnc4cccnc4c3)nc(N3CC4C(N)C4C3)c12 (centres unmarked) [1.11]	≤ 0.5 µg/mL	8 µg/mL (≈ 17.1 µM)	–	–
CNc1cc(F)cc2c1[nH]c1nc(Oc3cnc(N)nc3)nc(N3CCC(N)C3)c12 (centres unmarked) [4.179]	–	–	≤0.5 µg/mL	1 µg/mL (≈ 2.44 µM)
CNc1cc(F)cc2c1[nH]c1nc(Oc3cnc(C(C)(C)C)nc3)nc(N3CC4CC3C[C@H]4N)c12 (some centres unmarked) [4.441]	≤ 0.5 µg/mL	≤ 0.5 µg/mL	–	–
CNc1cc(F)cc2c1[nH]c1nc(Oc3cnc(C)nc3)nc(N3CC4CC(N)CC4C3)c12 (centres unmarked) [4.104]	–	–	≤0.5 µg/mL	≤0.5 µg/mL
CNc1cc(F)cc2c1[nH]c1nc(Oc3cnc(C)nc3)nc(-c3cn[nH]c3)c12 [4.418]	≤ 0.5 µg/mL	1 µg/mL (≈ 2.56 µM)	–	–
CNc1cc(F)cc2c1[nH]c1nc(Oc3cnc4c(c3)C(=O)N(C)C4C)nc(N3CC4CC(N)C4C3)c12 (centres unmarked) [4.397]	–	–	≤0.5 µg/mL	≤0.5 µg/mL
CNc1cc(F)cc2c1[nH]c1nc(Oc3cnc4cccnc4c3)nc(N3C[C@@H]4[C@H](C3)[C@@]4(N)C(N)=O)c12 [4.039]	≤ 0.5 µg/mL	2 µg/mL (≈ 4 µM)	–	–
CNc1cc(F)cc2c1[nH]c1nc(Oc3cncnc3)nc(N3C[C@H]4CCN[C@H]4C3)c12 [4.020]	≤ 0.5 µg/mL	≤ 0.5 µg/mL	–	–
CNc1cccc2c1[nH]c1nc(Sc3cnc4ccc[n+]([O-])c4c3)nc(N3CC[C@@H](C)[C@@H](N)C3)c12 [1.35]	≤ 0.5 µg/mL	2 µg/mL (≈ 4.11 µM)	–	–

Structure (SMILES)	MIC (S. aureus ATCC 13709)	MIC (E. coli ATCC 25922)	MIC Sa (S. aureus ATCC 13709)	MIC Ec (E. coli ATCC 25922)
CNc1cc(F)cc2c1[nH]c1nc(Oc3cnc(C)nc3)nc(N3CCC(C)(N)CC3)c12 [4.135]	–	–	≤0.5 µg/mL	1 µg/mL (≈ 2.29 µM)
CNc1cc(F)cc2c1[nH]c1nc(Oc3ccc(CO)nc3)nc(N3CC4CC3C[C@@H]4N)c12 (some centres unmarked) [4.392]	16 µg/mL (≈ 35.6 µM)	> 16 µg/mL	–	–
CNc1cc(F)cc2c1[nH]c1nc(Oc3cncc(F)c3)nc(N3CC4CC(N)C3C4)c12 (centres unmarked) [4.063]	–	–	1 µg/mL (≈ 2.29 µM)	8 µg/mL (≈ 18.3 µM)
CNc1cc(F)cc2c1[nH]c1nc(Oc3cnc(C)nc3)nc(N3CC(N)C(C(=O)NCCN4CCOCC4)C3)c12 (centres unmarked) [4.440]	16 µg/mL (≈ 28.3 µM)	> 16 µg/mL	–	–
CNc1cc(F)cc2c1[nH]c1nc(Oc3cnc(C)nc3)nc(N3CC4CCNC4C3)c12 (centres unmarked) [4.094]	–	–	≤0.5 µg/mL	≤0.5 µg/mL
CNc1cc(F)cc2c1[nH]c1nc(Oc3cncnc3)nc(N3CC[C@]4(C[C@@H]4N)C3)c12 [4.013]	≤ 0.5 µg/mL	≤ 0.5 µg/mL	–	–
CNc1cc(F)c(F)c2c1[nH]c1nc(Oc3cnc(CO)nc3)nc(N3C[C@H]4C[C@@H]3C[C@H]4N)c12 [5.14]	≤ 0.5 µg/mL	≤ 0.5 µg/mL	–	–
CNc1cc(F)cc2c1[nH]c1nc(Oc3cncc(C#N)c3)nc(N3CC(N)C4(CC4)C3)c12 (centres unmarked) [4.051]	≤ 0.5 µg/mL	2 µg/mL (≈ 4.5 µM)	–	–
CNc1cccc2c1[nH]c1nc(Sc3cnc4cccnc4c3)nc(N3CCC4(CC4N)C3)c12 (centres unmarked) [1.25]	≤ 0.5 µg/mL	–	–	4 µg/mL (≈ 8.54 µM)
CNc1cc(F)cc2c1[nH]c1nc(Oc3cnc4c(c3)OCCO4)nc(N3C[C@H](N)C4(CC4)C3)c12 [4.295]	≤ 0.5 µg/mL	≤ 0.5 µg/mL	–	–
CNc1cccc2c1[nH]c1nc(Oc3cnc(OC)c(OC)c3)nc(N3CC[C@@H](N)C3)c12 [3.2]	4 µg/mL (≈ 9.19 µM)	16 µg/mL (≈ 36.7 µM)	–	–
CNc1cc(F)cc2c1[nH]c1nc(Oc3cccnc3)nc(N3CC4CC(N)C4C3)c12 (centres unmarked) [4.348]	–	–	≤0.5 µg/mL	≤0.5 µg/mL
CNc1cccc2c1[nH]c1nc(Sc3cnc4ccc[n+]([O-])c4c3)nc(N3CCC4(CC4N)C3)c12 (centres unmarked) [1.39]	–	–	≤0.5 µg/mL	1 µg/mL (≈ 2.06 µM)
CNc1cccc2c1[nH]c1nc(Oc3cncnc3)nc(-c3cn[nH]c3)c12 [3.9]	2 µg/mL (≈ 5.58 µM)	32 µg/mL (≈ 89.3 µM)	–	–
CNc1cc(F)cc2c1[nH]c1nc(Oc3cnc(OC)nc3)nc(N3C[C@H](N)C4(CC4)C3)c12 [4.433]	≤ 0.5 µg/mL	≤ 0.5 µg/mL	–	–
